Reference: patent US20130183459A1, “DEVICE AND METHOD FOR I[…] AND COUNTING MICROBES AND DETERMINING ANTIMICROBIAL SENSITIVITY” (priority 2011, published 2013)

System: E. Coli B
Assay: Antimicrobial sensitivity test by resistance signature (pulsed-voltage sampling)
Assay type: cell-based
Conditions: 0.9 mL of 10^3 CFU/mL E. Coli B in LB Broth + 0.1 mL antibiotic, room temperature; control slope remains negative; FIGS. 7A-7D
Procedure: FIGS. 7A-7D depict signatures of microbial sample of 0.9 mL of a concentration of 10^3 CFU/mL of two-hour E. Coli B treated with 0.1 mL of antibiotics or antimicrobials and control samples in the absence thereof. What is common to all FIGS. 7A-7D is the slope for signatures with antibiotics or antimicrobials become positive, i.e., the resistance of the microbial sample increases, upon addition of the antibiotic or antimicrobial. The slope of the control samples remains negative.
In further detail, a difference in the degree of the slope change for the signature can be observed. Such differences are due to the type of antibiotic or antimicrobial, and its mechanism of action. For example, sulfamethoxazole, FIG. 7C, causes inhibition of DNA synthesis in the cell, thereby aiming essential cell functions. In contrast, azithromycin, FIG. 7B, inhibits […] in a bacterium, thereby acting on latent cell functions.
An overnight bacterial culture of E. coli B with a concentration of around 10^9 cells which had attained room temperature were diluted using LB Broth which had also attained room temperature to a final concentration of 10^3 cells. 0.9 ml of this solution was then placed into one sensor well which was connected to lead #1 of a reader unit. An additional 0.9 ml of the bacteria was placed into a second sensor well which was connected to lead #2 of a reader unit. […]

Compound: Cc1cc(NS(=O)(=O)c2ccc(N)cc2)no1 [sulfamethoxazole]
- slope of the resistance signature upon addition of the antibiotic or antimicrobial: steeper than for azithromycin
